# Data: patent publication US6458580B1, “Fungal sulphur source and method of using the same” (Commonwealth Scientific and Industrial Research Organisation, priority 1997, dated 2002)
# Where “and” joins values, the source holds several entries; their conditions need not be identical. Equal entries are not always repeated.
# Experiments:
# rumen fungi = experiment: Effect of different intra-ruminal doses on fungal zoospore numbers in the rumen; format: in vivo, sheep
# Procedure: Six cross-bred sheep [[…]] having rumen cannula were moved metabolism cages equipped with automatic feeders. They were given eight equal buckets of feed a day (three hourly) and offered water ad-lib. The sheep were offered 1.1 kg of a low sulphur feed (see below). After a period of three weeks on the diet rumen digesta was collected and rumen fluid (150 ml)was taken for zoospore counts. (An extra 100 ml of rumen digest was taken from each animal combined and mixed and 100 ml returned to each rumen to minimise differences between animals.) Zoospores were assessed by standard methods for handling anaerobic fungi. Serial dilutions of rumen fluid were prepared using an anaerobic diluent. Agar roll tubes were inoculated using a syringe with 0.2 ml of either a dilution of rumen fluid or undiluted rumen fluid. The media used was one mimicking the rumen environment but without added rumen fluid and with antibiotics (penicillin and streptomycin) added to stop overgrowth by rumen bacteria. After incubation the number of thallus forming units were counted and the number of zoospores in the rumen fluid calculated. […] The sheep were initially infused at the rate of 0.4 mMoles sulphur per day per 4 liters (ie 0.1 mM in rumen) This was equivalent to 12.67 mg Sulphur/day. The same protocols were used with successively higher doses. […] Each infusion was for one weeks before sampling rumen fluid and infusing the higher dose. […] Wheat straw was milled and approximately 40 kg quantities were transferred from the Gell feed mill to a mixer where 4 l of 40% NaOH was added while mixing. The feed was bagged (approximately two bags per 40 kg) and left for several days before a minerals mix was added. Two bags were placed in the mixer and the compounds in Table 3 were added. Trace elements were made up in 140 ml in water and were added to the urea which was previously dissolved in 25 Liters of water. This solution was then added to two bags of alkali treated feed while mixing. The remaining dry chemicals were mixed and the appropriate amount added (1.638 kg) onto the mixing feed. […]
# [1] = Effect of infusion on feed intake and digestibility; format: in vivo, sheep; settings: for Digested DM, MPA / Digestibility (% DM), MPA / Intake DM, MPA: MPA infused at 192 mg Sulphur/sheep/day; for Digested DM, MPA / Digestibility (% DM), MPA / Intake DM, MPA / Digested DM, % (+) / Digestibility, % (+) / Intake DM, % (+) increase after infusion of MPA: individual sheep and Aver. n = 13; for Digested DM, % (+) / Digestibility, % (+) / Intake DM, % (+) increase after infusion of MPA: versus control period
# Procedure: Feed was prepared as previously described (see example 4). Initially 22 sheep were fed 1 kg of alkali straw/day in the animal house for 4 days to select out sheep not eating the diet. 19 sheep were weighted and transferred to metabolism cages and feed the alkali straw diet ad-lib. Sheep were fed and on the following day the feed refusal weighted and if less then 100 g remained a further 100 g was fed; if 100-200g of feed remained the sheep was given the same amount of feed; if over 200 g of feed was left the sheep was given 100 g less feed. Over the following week another 6 sheep were moved out of the experiment (usually due to very low or erratic intakes). […] After 14 days infusion the collection period of 7 days commenced. Feed refusals were weighted, recorded, and a sample of up to 200 g/day pooled for subsequent analyses. Spilt feed was collected daily, weighted, recorded, and discarded. Faeces were collected with separators that excluded urine. The faeces were weighed and sub-sampled and pooled for subsequent analyses. Pooled faeces and feed were stored at −20° C. and then dried in a hot air oven (faeces were initially dried at 70° C.) at 100° C. cooled and weighted to determine dry weight (DM). Following the last sampling the infusion was stopped in the first group of sheep and on the following day the infusion treatment was begun in the other group of seven sheep. The second period (the crossover) was conducted in the same way as the first period with the same samples being taken at the same times.
smiles,measurement,setting,value
"O=C(O)CCS [MPA, 3-mercaptopropanoic acid]",levels of fungi,"rumen fungi; dose of 0.75 mM (95 mg S/day), four of the six animals",≈ 1000 /ml
same,optimum level of MPA,"rumen fungi; rumen concentration, 190 mg S/day, very low S content diet",1.5 mM
same,relation between concentration of MPA in the rumen and numbers of zoospores in rumen fluid,"rumen fungi; sheep on low sulphur diet (0.052% sulphur), 0-5.0 mM in rumen, seven days per dose, FIG. 3",clear dose response
same,response in digestive performance to infusion,"[1]; 192 mg Sulphur/day/sheep, with the exception of one animal","strong, positive, response"
same,"Digested DM, MPA",[1]; Table 4,357.26 g/day and 603.65 g/day and 558.00 g/day and 518.94 g/day and 806.76 g/day and 603.24 g/day and 630.64 g/day and 662.31 g/day and 673.01 g/day and 657.21 g/day and 714.69 g/day and 347.27 g/day and 414.97 g/day
same,"Digestibility (% DM), MPA",[1]; Table 4,50.799 % DM and 51.891 % DM and 45.708 % DM and 52.812 % DM and 58.076 % DM and 53.589 % DM and 46.808 % DM and 51.433 % DM and 53.840 % DM and 51.933 % DM and 48.119 % DM and 54.648 % DM and 51.522 % DM
same,"Intake DM, MPA",[1]; Table 4,703 g/day and 1163 g/day and 1221 g/day and 983 g/day and 1389 g/day and 1126 g/day and 1347 g/day and 1288 g/day and 1250 g/day and 1265 g/day and 1485 g/day and 635 g/day and 805 g/day
same,"Digested DM, MPA","[1]; Table 4, mean of 13 sheep",581 g/day
same,"Digestibility (% DM), MPA","[1]; Table 4, mean of 13 sheep",51.6 % DM
same,"Intake DM, MPA","[1]; Table 4, mean of 13 sheep",1128 g/day
same,"Digested DM, % (+)",[1]; Table 4,38.13% and 51.61% and 32.51% and 37.28% and 41.04% and 36.94% and 24.76% and 17.23% and 46.34% and 40.49% and 9.57% and 38.47% and 63.31%
same,"Digestibility, % (+)",[1]; Table 4,5.019% and 7.795% and 2.610% and 1.453% and 5.112% and 7.462% and 2.544% and 0.444% and 2.855% and 4.777% and 0.002% and 7.459% and 7.799%
same,"Intake DM, % (+) increase after infusion of MPA",[1]; Table 4,24.5% and 28.8% and 24.9% and 33.5% and 28.6% and 17.9% and 18.0% and 16.2% and 38.6% (2×) and 27.5% and 9.6% and 19.6%
same,"Digested DM, % (+)","[1]; Table 4, mean of 13 sheep",36.75%
same,"Digestibility, % (+)","[1]; Table 4, mean of 13 sheep",4.26%
same,"Intake DM, % (+) increase after infusion of MPA","[1]; Table 4, mean of 13 sheep",25.1%
same,"Intake DM, MPA",[1]; Table 5,805 g/day and 703 g/day and 1163 g/day and 1221 g/day and 983 g/day and 1389 g/day and 1126 g/day and 1347 g/day and 1288 g/day and 1250 g/day and 1265 g/day and 1485 g/day and 635 g/day
same,"Intake DM, MPA","[1]; Table 5, mean",1128 g/day
same,"Intake DM, % (+) increase after infusion of MPA",[1]; Table 5,38.6% (2×) and 24.5% and 28.8% and 24.9% and 33.5% and 28.6% and 17.9% and 18.0% and 16.2% and 27.5% and 9.6% and 19.6%
same,"Intake DM, % (+) increase after infusion of MPA","[1]; Table 5, mean",25.1%
